In PMC10322960 (European Journal of Drug Metabolism and Pharmacokinetics, 2023):

What was measured:
OAT1 = molecular target: T1, OAT1 (Homo sapiens, UniProt Q4U2R8); assay: OAT1 uptake substrate assay; type: in vitro ADME
T1 sequence (Q4U2R8 1-563): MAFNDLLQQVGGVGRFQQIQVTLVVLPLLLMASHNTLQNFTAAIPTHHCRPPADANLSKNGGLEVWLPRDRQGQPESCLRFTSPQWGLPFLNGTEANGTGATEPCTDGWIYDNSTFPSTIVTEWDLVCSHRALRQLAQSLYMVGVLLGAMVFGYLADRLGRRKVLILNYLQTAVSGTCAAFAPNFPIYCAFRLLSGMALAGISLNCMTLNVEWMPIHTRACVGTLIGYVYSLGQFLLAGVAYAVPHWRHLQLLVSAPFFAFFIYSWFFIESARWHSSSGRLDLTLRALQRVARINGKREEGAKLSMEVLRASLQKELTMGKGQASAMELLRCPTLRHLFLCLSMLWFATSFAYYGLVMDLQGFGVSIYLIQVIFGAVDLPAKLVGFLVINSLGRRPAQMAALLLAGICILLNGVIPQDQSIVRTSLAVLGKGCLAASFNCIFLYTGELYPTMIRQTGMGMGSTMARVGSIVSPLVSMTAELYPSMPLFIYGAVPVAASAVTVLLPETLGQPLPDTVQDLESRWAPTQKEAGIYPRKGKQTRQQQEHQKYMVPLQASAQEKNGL

CYP1A2 [1] = molecular target: T2, CYP1A2 (Homo sapiens, UniProt P05177); type: in vitro ADME
T2 sequence (P05177 1-516): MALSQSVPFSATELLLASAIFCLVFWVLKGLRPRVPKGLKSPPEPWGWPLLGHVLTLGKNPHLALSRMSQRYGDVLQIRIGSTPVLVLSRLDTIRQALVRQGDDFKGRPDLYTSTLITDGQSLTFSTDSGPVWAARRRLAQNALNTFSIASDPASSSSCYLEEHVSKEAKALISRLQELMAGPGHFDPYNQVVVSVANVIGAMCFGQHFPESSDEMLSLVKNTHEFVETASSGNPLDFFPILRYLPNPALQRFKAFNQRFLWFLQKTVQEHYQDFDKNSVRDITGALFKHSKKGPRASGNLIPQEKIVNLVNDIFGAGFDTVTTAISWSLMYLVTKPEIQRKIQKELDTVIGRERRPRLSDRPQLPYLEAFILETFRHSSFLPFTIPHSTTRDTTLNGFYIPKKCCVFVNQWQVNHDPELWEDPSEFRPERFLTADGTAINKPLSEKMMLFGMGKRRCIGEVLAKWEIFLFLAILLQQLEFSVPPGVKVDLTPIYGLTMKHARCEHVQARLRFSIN

CYP2C8 = molecular target: T3, CYP2C8 (Homo sapiens, UniProt P10632); assay: In vitro P450 inhibition, recombinant CYP2C8; type: in vitro ADME
T3 sequence (P10632 1-490): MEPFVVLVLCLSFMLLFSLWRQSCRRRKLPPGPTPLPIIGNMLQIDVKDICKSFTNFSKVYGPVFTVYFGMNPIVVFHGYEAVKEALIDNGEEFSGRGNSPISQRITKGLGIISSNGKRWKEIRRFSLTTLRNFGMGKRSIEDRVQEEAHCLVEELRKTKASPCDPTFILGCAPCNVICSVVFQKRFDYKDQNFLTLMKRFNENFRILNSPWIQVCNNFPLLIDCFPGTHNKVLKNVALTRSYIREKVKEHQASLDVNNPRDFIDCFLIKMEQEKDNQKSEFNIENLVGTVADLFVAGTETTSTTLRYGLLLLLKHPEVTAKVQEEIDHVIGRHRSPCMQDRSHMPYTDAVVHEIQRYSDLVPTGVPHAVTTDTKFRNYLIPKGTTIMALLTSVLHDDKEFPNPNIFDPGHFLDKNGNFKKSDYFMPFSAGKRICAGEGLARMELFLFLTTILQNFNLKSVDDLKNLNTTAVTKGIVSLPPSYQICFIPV

CYP1A2 [2] = settings: ocedurenone at 0.1, 1, or 10 μM, 72 h; inducer criterion 40%
CYP2D6 = CYP2D6 (Homo sapiens, UniProt P10635); assay: In vitro P450 inhibition, recombinant CYP2D6; type: in vitro ADME
CYP2D6, sequence (P10635 whole entry): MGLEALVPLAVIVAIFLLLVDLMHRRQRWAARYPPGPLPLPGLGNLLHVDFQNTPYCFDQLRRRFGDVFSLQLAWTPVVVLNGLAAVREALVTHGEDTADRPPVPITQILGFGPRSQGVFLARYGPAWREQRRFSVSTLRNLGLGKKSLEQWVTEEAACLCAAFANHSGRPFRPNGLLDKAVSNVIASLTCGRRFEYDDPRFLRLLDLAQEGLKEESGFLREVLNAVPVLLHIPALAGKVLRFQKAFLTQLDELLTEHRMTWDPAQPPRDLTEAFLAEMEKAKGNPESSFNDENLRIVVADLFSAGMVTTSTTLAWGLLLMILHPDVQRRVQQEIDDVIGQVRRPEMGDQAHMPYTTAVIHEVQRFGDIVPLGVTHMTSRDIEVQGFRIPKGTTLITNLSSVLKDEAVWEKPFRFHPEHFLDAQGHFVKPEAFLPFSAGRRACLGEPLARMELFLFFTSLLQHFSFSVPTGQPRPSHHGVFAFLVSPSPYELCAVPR

BCRP = molecular target: T4, BCRP (Homo sapiens, UniProt Q9UNQ0); assay: BCRP vesicular transport inhibition assay; type: in vitro ADME
T4 sequence (Q9UNQ0 1-655): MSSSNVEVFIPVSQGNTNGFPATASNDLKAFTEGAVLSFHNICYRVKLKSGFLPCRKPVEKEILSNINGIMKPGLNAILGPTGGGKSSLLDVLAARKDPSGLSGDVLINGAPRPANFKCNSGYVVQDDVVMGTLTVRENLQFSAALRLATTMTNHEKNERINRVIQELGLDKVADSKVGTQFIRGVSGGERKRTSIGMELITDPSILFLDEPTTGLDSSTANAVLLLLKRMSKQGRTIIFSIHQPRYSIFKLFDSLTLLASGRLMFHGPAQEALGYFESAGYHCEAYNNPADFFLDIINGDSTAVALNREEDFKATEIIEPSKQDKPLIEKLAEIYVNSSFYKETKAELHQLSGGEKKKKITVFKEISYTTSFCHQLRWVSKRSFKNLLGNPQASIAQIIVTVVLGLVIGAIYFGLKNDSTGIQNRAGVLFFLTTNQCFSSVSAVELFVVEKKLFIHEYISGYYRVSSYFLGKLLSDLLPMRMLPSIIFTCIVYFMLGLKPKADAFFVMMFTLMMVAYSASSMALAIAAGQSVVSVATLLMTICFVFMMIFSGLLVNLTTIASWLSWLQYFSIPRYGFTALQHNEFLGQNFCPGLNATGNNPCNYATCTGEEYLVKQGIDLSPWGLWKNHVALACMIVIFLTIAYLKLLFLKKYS

Question: For N#Cc1ccc(N2N=C3c4ccc(C(=O)N5CCC(O)CC5)nc4CC[C@@H]3[C@@H]2C2CCCC2)cc1Cl [Ocedurenone, ocedurenone], which “Substrate, OAT1 UPT” value (OAT1) is on record?
Answer: Its value is “not likely to be a substrate”.

Question: And the “Maximum fold accumulation, OAT1 UPT” value (OAT1; transporter-expressing vs control cells, 0.04–40 µm)?
Answer: Its value is 1.1.

Question: And the “percent remaining activity of CYP1A2” value (CYP1A2 [1]; ocedurenone at 200 μM)?
Answer: Its value is 92.9%.

Question: What about the IC50 (CYP1A2 [1]; read-out: IC50 CYP1A2, recombinant CYP) of the same compound?
Answer: The IC50 was greater than 200 µM.

Question: And the “inhibition category CYP1A2” value (CYP1A2 [1]; recombinant enzyme)?
Answer: The value was “little or no inhibition”.

Question: And the “percentage remaining activity of CYP2C8” value (CYP2C8; ocedurenone at 200 μM)?
Answer: The value was 26.4%.

Question: What about the IC50 (CYP2C8; read-out: IC50 CYP2C8, recombinant CYP, results section) of the same compound?
Answer: The IC50 was greater than 10 µM.

Question: What about the “inhibition category CYP2C8” value (CYP2C8; recombinant enzyme) of the same compound?
Answer: The value was “weak inhibition (IC50 >10 μM categorized as weak inhibition)”.

Question: And the “percent CYP1A2 induction (of positive control)” value (CYP1A2 [2])?
Answer: Its value is “lower than 40%”.

Question: And the “percent remaining activity of CYP2D6” value (CYP2D6; ocedurenone at 200 μM)?
Answer: The value was 87.8%.

Question: What about the IC50 (CYP2D6; read-out: IC50 CYP2D6, recombinant CYP) of the same compound?
Answer: The IC50 was greater than 200 µM.

Question: And the “inhibition category CYP2D6” value (CYP2D6; recombinant enzyme)?
Answer: Its value is “little or no inhibition”.

Question: What about the “inhibition of BCRP at 40 µM” value (BCRP; first vesicular transport run, 40 µM) of the same compound?
Answer: Its value is 98%.

Question: What about the “maximum inhibition of BCRP-mediated transport” value (BCRP; repeat with 7 concentrations, at 40 µm) of the same compound?
Answer: The value was 98%.
